{
  "source": "patent US20250352549A1",
  "about": "“SUBSTITUTED HETEROCYCLIC COMPOUND DERIVATIVES AND THEIR PHARMACEUTICAL USE” (AVELOS THERAPEUTICS INC., priority 0001, published 2025)",
  "key": {"T cells": {"tested_on": "T cells", "conditions": "disclosed in CN 116942819; cited from earlier work"}, "[1]": {"tested_on": "breast cancer MDA-MB-468 cells", "conditions": "disclosed in CN 116942819; cited from earlier work"}, "[2]": {"tested_on": "breast cancer MDA-MB-231 cells", "conditions": "disclosed in CN 116942819; cited from earlier work"}, "[3]": {"molecular_target": "Wild-type human active MASTL (Homo sapiens (Human), UniProt Q96GX5)", "sequence (Q96GX5 whole entry)": "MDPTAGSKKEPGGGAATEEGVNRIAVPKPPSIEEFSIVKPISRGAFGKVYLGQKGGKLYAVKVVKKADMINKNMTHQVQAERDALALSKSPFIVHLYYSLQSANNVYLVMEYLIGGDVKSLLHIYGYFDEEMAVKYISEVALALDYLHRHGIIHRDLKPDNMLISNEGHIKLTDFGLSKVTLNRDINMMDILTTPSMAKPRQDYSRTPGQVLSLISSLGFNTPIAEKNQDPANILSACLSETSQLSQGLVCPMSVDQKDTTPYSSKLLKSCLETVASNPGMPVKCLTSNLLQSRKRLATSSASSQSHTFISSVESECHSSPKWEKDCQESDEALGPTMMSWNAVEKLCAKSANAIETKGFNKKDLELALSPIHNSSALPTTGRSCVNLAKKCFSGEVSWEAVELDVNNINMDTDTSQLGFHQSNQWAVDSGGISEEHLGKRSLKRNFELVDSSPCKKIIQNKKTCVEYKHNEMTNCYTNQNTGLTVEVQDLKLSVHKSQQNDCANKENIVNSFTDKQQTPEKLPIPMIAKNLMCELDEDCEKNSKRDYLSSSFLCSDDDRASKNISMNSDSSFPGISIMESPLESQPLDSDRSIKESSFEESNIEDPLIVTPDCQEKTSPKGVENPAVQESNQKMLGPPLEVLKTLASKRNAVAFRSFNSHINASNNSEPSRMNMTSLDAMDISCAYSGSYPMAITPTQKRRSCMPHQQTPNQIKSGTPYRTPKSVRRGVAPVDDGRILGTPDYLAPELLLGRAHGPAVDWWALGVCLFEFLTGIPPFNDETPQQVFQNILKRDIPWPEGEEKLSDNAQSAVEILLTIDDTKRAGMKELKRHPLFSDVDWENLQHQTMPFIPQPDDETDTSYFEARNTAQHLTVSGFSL", "assay": "MASTL activity assay", "format": "biochemical", "conditions": "ATP 18 μM, biotin tagged 40-mer ENSA peptide 10 nM, 60 minutes at room temperature, HTRF/FRET readout", "experimental": "Wild-type human active MASTL (154 pM) was incubated in assay buffer (50 mM HEPES, 100 mM NaCl, 0.1 mM EGTA, 10 mM MgCl2, 0.01% Tween-20, 0.5 mM TCEP, pH 7.5) with biotin tagged 40-mer ENSA peptide (10 nM), test compound and ATP (18 μM) for 60 minutes at room temperature. Test compounds were assayed using a 12-point dose range consisting of a 0, DMSO control and 10 sequential doses consisting from 0.0005, 0.002, 0.005, 0.014, 0.04, 0.12, 0.37, 1.11, 3.33 and 10 μM. The DMSO concentration was the same (1%) in all samples. An equal volume of detection buffer (assay buffer+267.5 pM Ab-K, 1.25 nM SA-D2, 20 mM EDTA and 400 mM KF) was added to stop the reaction to make a final volume of 20 μl, RT for 60 mins. Activity was measured using a plate reader (PerkinElmer EnSight) by the FRET signal generated between SA-D2 (streptavidin-D2) and Ab-K (anti-phospho-Serine 67 ENSA antibody (rabbit polyclonal, using standard techniques by a commercial supplier) conjugated to Cryptate). HTRF reagents (CisBio) were prepared as per the manufacturer recommendations. The 40-mer biotin-tagged ENSA peptide (synthesised by Bionics) used was based around Serine 67 on ENSA ([…])."}},
  "data": [
    {"smiles": "O=C(Nc1nc2ccccc2[nH]1)c1cccc(-n2cccc2)c1", "note": "[MKI-1]", "values": [
      {"measurement": "anti-tumor function of T cells", "setting": "T cells", "result": "effectively enhance the anti-tumor function of T cells"},
      {"measurement": "effect on the up-regulation of the interferon-induced PD-L1 expression", "setting": "[1]", "result": "remarkable inhibition effect"},
      {"measurement": "effect on PD-L1 expression of tumor cells which expressed PD-L1 in a high level and were not affected by interferon", "setting": "[2]", "result": "not possible to effect"}
    ]},
    {"smiles": "Cc1ncc2ccc(-c3nc(N)nc(NC[C@H](O)c4cccc(Cl)c4Cl)n3)cn12", "note": "(single isomer, unassigned) [Example 146A, (1S or 1R)-[[4-amino-6-(3-methylimidazo[1,5-a]pyridin-6-yl)-1,3,5-triazin-2-yl]amino]-1-(2,3-dichlorophenyl) ethanol]", "values": [
      {"measurement": "IC50", "setting": "[3]", "result": "1 to 500", "unit": "nM"}
    ]}
  ]
}
